Patent US20230077155A1, “TETRAHYDROISOQUINOLINE COMPOUND AS POTASSIUM CHANNEL MODULATOR AND PREPARATION AND APPLICATION THEREOF” (Shanghai Zhimeng Biopharma, Inc., priority 2020, published 2023)
pEC50: −log10 of the molar value.

How the values were obtained:
[1] = Pharmacokinetics of rats, single intravenous and oral administration, plasma; assay type: in vivo; conditions: male SD rats; for AUC(0-inf) / AUC(0-t) / Cmax / Tmax / half-life: rat, plasma
Protocol: Study on Pharmacokinetics of Rats
1) Research purpose: To obtain the pharmacokinetic characteristics of the compounds to be tested in male SD rats.
(§1) Pharmacokinetic study: 6 healthy male SD rats (SPF grade) were divided into 2 groups and 3 rats/group. After fasting overnight (only oral administration group), compound A was administrated 0.3 mg/kg intravenously and 5 mg/kg orally, blood was collected by jugular vein puncture at time points 0.083 (IV only), 0.25, 0.5, 1, 2, 4, 6 (PO only), 8 and 24 hours, and at least 0.3 mL of whole blood was collected to EDTA-K2 anticoagulant tube. Plasma was centrifuged (6000 rmp, 8 minutes, 4° C.) within half an hour and frozen at −20° C. for later use.
(§2) Experimental results: According to the blood drug concentration data obtained, the non-compartmental model of WinNonlin® 7.0 software (Pharsight, USA) was used to calculate the pharmacokinetic parameters after administration.

[2] = Brain-blood ratio study in mice after single oral administration; assay type: in vivo; conditions: mouse, brain and plasma, male ICR mice, single oral 10 mg/kg, read-out: Cerebral blood ratio; for Kp at 2 h: time point 2 h; for Kp at 4 h: time point 4 h
Protocol: Brain-blood ratio study: 6 healthy male ICR mice (body weight range 18-22 g) were taken and divided into 2 groups and 3 mice/group. After fasting overnight, the compound to be tested (10 mg/kg) was administrated orally respectively. Blood was taken through cardiac puncture at time points 2 and 4 hours, at least 0.5 mL of whole blood was collected to EDTA-K2 anticoagulant tube. Plasma was centrifuged (6000 rpm, 8 minutes, 4° C.) within half an hour and frozen at −20° C. for later use. At the same time, the brain tissue was collected, rinsed with normal saline, then sucked to dryness with absorbent paper, weighed, and frozen at −20° C. for later use.
The cerebral blood ratio is very important to nerve drugs, and it can be seen from Table 3 that the compounds of the present invention have excellent cerebral blood ratio, which will bring better drug efficacy and excellent safety. By comparing the cerebral blood ratios of compound A, compound 1, compound B and compound J, it can be seen that after the tert-butyl of compound A or compound B has been changed into […]

[3] = target: T1, KCNQ2 potassium channel (CHO-KCNQ2 cells) (Homo sapiens, UniProt O43526); experiment: Potassium ion channel opener activity test (FDSS/μCELL detection, FluxOR thallium flux); assay type: cell-based; conditions: for Maximum agonist rate (%): highest test concentration 100 μM
T1 construct: expressed in transfected cells; host or cells: CHO cells stably expressing KCNQ2, kept under G418 selection
T1 sequence (O43526 whole entry): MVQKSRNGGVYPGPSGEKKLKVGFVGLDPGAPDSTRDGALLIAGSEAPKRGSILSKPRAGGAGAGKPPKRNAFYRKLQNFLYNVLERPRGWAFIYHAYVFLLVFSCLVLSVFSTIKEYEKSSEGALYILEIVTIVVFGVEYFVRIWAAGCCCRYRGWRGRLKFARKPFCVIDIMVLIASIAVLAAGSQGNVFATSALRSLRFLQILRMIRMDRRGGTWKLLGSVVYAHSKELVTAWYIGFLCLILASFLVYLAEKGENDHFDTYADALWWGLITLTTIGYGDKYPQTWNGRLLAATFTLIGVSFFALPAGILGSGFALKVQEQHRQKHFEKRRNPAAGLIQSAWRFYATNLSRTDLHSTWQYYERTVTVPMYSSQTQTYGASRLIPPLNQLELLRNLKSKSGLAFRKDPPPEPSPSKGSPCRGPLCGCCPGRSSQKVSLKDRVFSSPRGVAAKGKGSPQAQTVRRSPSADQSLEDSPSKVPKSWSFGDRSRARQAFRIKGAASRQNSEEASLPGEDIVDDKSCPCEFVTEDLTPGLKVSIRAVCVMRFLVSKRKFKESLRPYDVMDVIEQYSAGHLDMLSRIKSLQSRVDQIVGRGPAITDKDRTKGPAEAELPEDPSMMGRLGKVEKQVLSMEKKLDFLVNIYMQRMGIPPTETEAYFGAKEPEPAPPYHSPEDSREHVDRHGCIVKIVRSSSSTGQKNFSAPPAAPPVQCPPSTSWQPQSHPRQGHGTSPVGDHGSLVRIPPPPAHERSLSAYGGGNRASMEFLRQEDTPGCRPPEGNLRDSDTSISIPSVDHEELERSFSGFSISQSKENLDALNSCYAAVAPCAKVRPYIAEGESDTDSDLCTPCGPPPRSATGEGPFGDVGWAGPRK
Protocol: Potassium Ion Channel Opener Activity Test (FDSS/μCELL Detection)
1.1 Experimental procedure
Cell preparation: CHO-KCNQ2 cells were cultured in a 175 cm^2 culture flask, and when the cell density grew to 60-80%, the culture medium was removed, washed with 7 mL PBS (Phosphate Buffered Saline) once, then 3 mL 0.25% Trypsin was added to digest. After the digestion was completed, 7 mL culture medium (90% DMEM/F12+10% FBS±500 μg/mL G418) was added to neutralize, centrifugated for 3 minutes at 800 rpm. The supernatant was aspirated, then 5 mL culture medium was added to resuspend, and then the cells were counted.
Cell plating: according to the results of cell counting, the density was adjusted to 3×10^4 cells/well. After standing at room temperature for 30 minutes, the plate was placed in a 37° C. CO2 incubator and incubated overnight for 16-18 hours. The cell density reached about 80%.
Fluorescent dye incubation: the cell culture medium was discarded, 80 μL/well loading buffer was added, and incubated in the dark at room temperature for 60 minutes. Compound incubation: the loading buffer was discarded, 80 μL/well prepared compound solution was added, and incubated in the dark at room temperature for 20 minutes.
Fluorescence data collection: FDSS/μCELL instrument was used for real-time fluorescence signal recording with excitation wavelength at 480 nm and emission wavelength at 540 nm, recorded 1 time per second, and 20 μL/well stimulation buffer was started to add after recording for 10 seconds for baseline, and then continued to record until the end of 180 seconds.
The above buffer come from a commercially available kit named FluxOR potassium ion channel assay.
20 mM DMSO compound mother liquor was prepared, 10 μL of 20 mM compound mother liquor was took into 20 μL DMSO solution, serially diluted 3 times to 8 intermediate concentrations; then the intermediate concentrations of the compound was took out and added to the test buffer, diluted for 200 times to get the final concentration to be tested, 80 μL was took out and added to the test plate.
The highest test concentration was 100 μM, followed by […], 33.33, 11.11, 3.70, 1.23, 0.41, 0.137, 0.045 μM, total 8 concentrations. Each concentration set 3 duplicate wells.
This concentration of DMSO has no effect on the KCNQ2 potassium channel.
Experimental data was analyzed by Excel 2007 and GraphPad Prism 5.0 software, and the ratio of 180 seconds was calculated to calculate the agonism effect. The agonism effect of the compound was calculated by the following formula: […]
Reagent: FluxORTM Detection Kit (Invitrogen, Cat #F0017)
The experimental data in the report must meet the following criteria: Z′ Factor>0.5
2. Results: See Table 1, wherein the smaller the EC50 is, the higher the activity of the corresponding compound is.

[4] = Pharmacokinetics of mice, single intravenous and oral administration, plasma; assay type: in vivo; conditions: male ICR mice; for F: gavage 10 mg/kg vs intravenous; for AUC(0-inf) / AUC(0-t) / Cmax / Tmax / half-life: mouse, plasma
Protocol: Study on Pharmacokinetics of Mice
1) Research purposes: In order to obtain the pharmacokinetic characteristics and blood-brain barrier of the tested compound in male ICR mice
as §1, with “Six” for “Pharmacokinetic study: 6”, “ICR mice (body weight range 18-22 g)” for “SD rats (SPF grade)”, “were taken and” for “were”, “mice/group.” for “rats/group.”, “[…],” for “compound A was administrated 0.3 mg/kg intravenously and 5 mg/kg orally,”, “rpm,” for “rmp,”
as §2

[5] = intravenous 1 mg/kg (footnote *)

Row | Structure (SMILES) | Kp at 2 h [2] | Kp at 4 h [2] | pEC50 [3] | Maximum agonist rate (%) [3] [%] | F [4] [%] | AUC(0-inf) ([4]; po, gavage 10 mg/kg) [ng·h/mL] | AUC(0-t) ([4]; po, gavage 10 mg/kg) [ng·h/mL] | Cmax ([4]; po, gavage 10 mg/kg) [ng/mL] | Tmax ([4]; po, gavage 10 mg/kg) [min] | half-life ([4]; po, gavage 10 mg/kg) [h] | further results
1 | Cc1cc2c(c(C)c1NC(=O)CC1(C)CC1)CCN(c1ccc(F)cc1)C2 [Compound I] | 6 | 5.8 | 6.36 | 38.3 | 24.6 | 539 | 528 | 192 | 19.8 | 3.86 | F ([1]; gavage 5 mg/kg vs intravenous 0.3 mg/kg): 30.11%; AUC(0-inf) ([1]; po, gavage 5 mg/kg): 855 ng·h/mL; AUC(0-t) ([1]; po, gavage 5 mg/kg): 822 ng·h/mL; Cmax ([1]; po, gavage 5 mg/kg): 221 ng/mL; Tmax ([1]; po, gavage 5 mg/kg): 30 min; half-life ([1]; po, gavage 5 mg/kg): 375 min; AUC(0-inf) ([1]; intravenous 0.3 mg/kg): 166 ng·h/mL; AUC(0-t) ([1]; intravenous 0.3 mg/kg): 164 ng·h/mL; Cmax ([1]; intravenous 0.3 mg/kg): 345 ng/mL; Tmax ([1]; intravenous 0.3 mg/kg): 4.8 min; half-life ([1]; intravenous 0.3 mg/kg): 104 min; AUC(0-inf) ([4]; intravenous 0.5 mg/kg): 108 ng·h/mL; AUC(0-t) ([4]; intravenous 0.5 mg/kg): 107 ng·h/mL; Cmax ([4]; intravenous 0.5 mg/kg): 299 ng/mL; Tmax ([4]; intravenous 0.5 mg/kg): 4.8 min; half-life ([4]; intravenous 0.5 mg/kg): 0.86 h
2 | Cc1cc2c(c(C)c1NC(=O)CC1(C)CC1)CCN(c1ccc(F)cc1F)C2 [Compound J] | 4.1 | 3.2 |  |  | 19.18 | 703 | 693 | 374 | 15 | 1.81 | AUC(0-inf) [4, 5]: 366 ng·h/mL; AUC(0-t) [4, 5]: 361 ng·h/mL; Cmax [4, 5]: 942 ng/mL; Tmax [4, 5]: 4.8 min; half-life [4, 5]: 0.88 h
3 | Cc1cc2c(c(C)c1NC(=O)CC1(C)CC1)CCN(c1ccc(C#N)cc1)C2 [Compound O] |  |  | 6.11 | 29.43 |  |  |  |  |  |  | 
4 | Cc1cc2c(c(C)c1NC(=O)CC1(C)CC1)CCN(c1ccc(C(F)(F)F)cc1)C2 [Compound P] | 6.4 | 5.96 | 7.47 | 38.22 | 83.77 | 30900 | 5990 | 315 | 520 | 84.3 | AUC(0-inf) ([4]; intravenous 0.5 mg/kg): 383 ng·h/mL; AUC(0-t) ([4]; intravenous 0.5 mg/kg): 357 ng·h/mL; Cmax ([4]; intravenous 0.5 mg/kg): 382 ng/mL; Tmax ([4]; intravenous 0.5 mg/kg): 4.8 min; half-life ([4]; intravenous 0.5 mg/kg): 2.67 h
5 | Cc1ccc(N2CCc3c(cc(C)c(NC(=O)CC(C)(C)C)c3C)C2)cc1 [Compound U] |  |  | 6.48 | 52.3 |  |  |  |  |  |  | 
6 | Cc1cc2c(c(C)c1NC(=O)CC1(C)CC1)CCN(c1ccccc1)C2 [Compound V] |  |  | 6.47 | 45.76 |  |  |  |  |  |  | 
7 | Cc1cc2c(c(C)c1NC(=O)CC1(C)CC1)CCN(c1ccc(Cl)cc1)C2 [Compound W] |  |  | 6.74 | 33.2 |  |  |  |  |  |  | 
8 | Cc1cc2c(c(C)c1NC(=O)CC1(C)CC1)CCN(c1ccc(I)cc1)C2 [Compound X] |  |  | 7.14 | 28.94 |  |  |  |  |  |  | 
9 | Cc1cc2c(c(C)c1NC(=O)CC1(C)CC1)CCN(c1ccc(Br)cc1)C2 [Compound Y] |  |  | 6.70 | 37.96 |  |  |  |  |  |  | 
10 | Cc1cc2c(c(C)c1NC(=O)CC1(C)CC1)CCN(c1cccc(F)c1)C2 [Compound Z] |  |  | 7.03 | 48.65 |  |  |  |  |  |  | 
